According to ChEMBL document CHEMBL4602648, “The bioisosteric modification of pyrazinamide derivatives led to potent antitubercular agents: Synthesis via click approach and molecular docking of pyrazine-1,2,3-triazoles” (Bioorg Med Chem Lett, 2020):
Values after ≈ are worked out from the molar mass of the structure shown. Active and inactive are the calls of the source. No cut-off for these calls is given here.

Assays:
[1] = molecular target: T1, Enoyl-[acyl-carrier-protein] reductase [NADH] (Mycobacterium tuberculosis) (UniProt P9WGR1); assay: Inhibition of Mycobacterium tuberculosis H37Rv ATCC 27294 InhA assessed as bacterial growth inhibition after 5 days by microplate alamar blue assay
T1 sequence (whole entry): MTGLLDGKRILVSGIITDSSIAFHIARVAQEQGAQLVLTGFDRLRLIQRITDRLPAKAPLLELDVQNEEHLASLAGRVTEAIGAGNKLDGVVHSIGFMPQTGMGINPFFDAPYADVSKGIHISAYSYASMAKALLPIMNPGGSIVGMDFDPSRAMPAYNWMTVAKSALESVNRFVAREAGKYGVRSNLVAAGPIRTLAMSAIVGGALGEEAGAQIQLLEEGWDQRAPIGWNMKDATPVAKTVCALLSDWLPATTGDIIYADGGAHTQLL

Escherichia coli = assay: Antibacterial activity against Escherichia coli by dilution assay; assay type: functional
Staphylococcus aureus = assay: Antibacterial activity against Staphylococcus aureus by dilution assay; assay type: functional
Pseudomonas aeruginosa = assay: Antibacterial activity against Pseudomonas aeruginosa by dilution assay; assay type: functional
Vero = assay: Cytotoxicity against African green monkey Vero cells assessed as reduction in cell viability incubated for 48 hrs by MTT assay; assay type: cell-based; settings: Chlorocebus sabaeus
[2] = Selectivity index, ratio of IC50 for cytotoxicity against African green monkey Vero cells to MIC for antitubercular activity against Mycobacterium tuberculosis H37Rv ATCC 27294; assay type: toxicity, cell-based; settings: read-out: Selectivity Index
[3] = Cytotoxicity against African green monkey Vero cells assessed as growth inhibition at 62.5 ug/ml after 48 hrs by MTT assay relative to control; assay type: cell-based; settings: chlorocebus sabaeus, read-out: GI

Compound	MIC [1]	MIC (Escherichia coli)	MIC (Staphylococcus aureus)	MIC (Pseudomonas aeruginosa)	IC50 (Vero)	selectivity ratio [2]	inhibition at 48 h, 62.5 ug/ml [3]
O=C(NCc1cn(Cc2ccccc2F)nn1)c1cnccn1	9.99 µM (≈ 3.12 µg/mL)	12.5 µg/mL (≈ 40 µM)	6.25 µg/mL (≈ 20 µM)	12.5 µg/mL (≈ 40 µM)	–	–	–
O=C(NCc1cn(Cc2ccccc2F)nn1)c1cccnc1	10 µM (≈ 3.12 µg/mL)	25 µg/mL (≈ 80.3 µM)	6.25 µg/mL (≈ 20.1 µM)	25 µg/mL (≈ 80.3 µM)	–	–	–
Fc1ccccc1Cn1cc(CSc2nnc(-c3cnccn3)o2)nn1	> 100 µM	inactive	50 µg/mL (≈ 135 µM)	inactive	–	–	–
O=C(NCc1cn(Cc2ccc(F)cc2)nn1)c1ccccc1	> 100 µM	inactive	50 µg/mL (≈ 161 µM)	inactive	–	–	–
N#Cc1ccc(Cn2cc(CNC(=O)c3ccccc3)nn2)cc1	39.4 µM (≈ 12.5 µg/mL)	25 µg/mL (≈ 78.8 µM)	25 µg/mL (≈ 78.8 µM)	25 µg/mL (≈ 78.8 µM)	–	–	–
CN[C@@H]1[C@H](O[C@H]2[C@H](O[C@H]3[C@H](O)[C@@H](O)[C@H](N=C(N)N)[C@@H](O)[C@@H]3N=C(N)N)O[C@@H](C)[C@]2(O)C=O)O[C@@H](CO)[C@H](O)[C@H]1O	11.7 µM (≈ 6.83 µg/mL)	–	–	–	–	–	–
O=C(OCc1cn(Cc2ccc(F)cc2)nn1)c1ccccc1	80.3 µM (≈ 25 µg/mL)	50 µg/mL (≈ 161 µM)	25 µg/mL (≈ 80.3 µM)	25 µg/mL (≈ 80.3 µM)	–	–	–
Cc1ccc(Cn2cc(CSc3nnc(-c4cnccn4)o3)nn2)cc1	8.53 µM (≈ 3.12 µg/mL)	12.5 µg/mL (≈ 34.2 µM)	12.5 µg/mL (≈ 34.2 µM)	25 µg/mL (≈ 68.4 µM)	–	–	–
O=C(NCc1cn(Cc2ccccc2F)nn1)c1ccccc1	> 100 µM	inactive	50 µg/mL (≈ 161 µM)	50 µg/mL (≈ 161 µM)	–	–	–
N#Cc1ccc(Cn2cc(CSc3nnc(-c4cnccn4)o3)nn2)cc1	16.6 µM (≈ 6.25 µg/mL)	50 µg/mL (≈ 133 µM)	25 µg/mL (≈ 66.4 µM)	50 µg/mL (≈ 133 µM)	–	–	–
NC(=O)c1cnccn1	25.3 µM (≈ 3.12 µg/mL)	–	–	–	–	–	–
O=C(OCc1cn(Cc2ccc([N+](=O)[O-])cc2)nn1)c1cnccn1	18.4 µM (≈ 6.25 µg/mL)	25 µg/mL (≈ 73.5 µM)	25 µg/mL (≈ 73.5 µM)	50 µg/mL (≈ 147 µM)	–	–	–
FC(F)(F)c1ccc(Cn2cc(CSc3nnc(-c4cnccn4)o3)nn2)cc1	59.6 µM (≈ 25 µg/mL)	25 µg/mL (≈ 59.6 µM)	25 µg/mL (≈ 59.6 µM)	25 µg/mL (≈ 59.6 µM)	–	–	–
N#Cc1ccc(Cn2cc(COC(=O)c3cnccn3)nn2)cc1	9.74 µM (≈ 3.12 µg/mL)	50 µg/mL (≈ 156 µM)	12.5 µg/mL (≈ 39 µM)	25 µg/mL (≈ 78 µM)	–	–	–
O=C(NCc1cn(Cc2ccc(F)cc2)nn1)c1cccnc1	80.3 µM (≈ 25 µg/mL)	12.5 µg/mL (≈ 40.2 µM)	12.5 µg/mL (≈ 40.2 µM)	25 µg/mL (≈ 80.3 µM)	–	–	–
O=C(NCc1cn(Cc2ccc(C(F)(F)F)cc2)nn1)c1cnccn1	4.31 µM (≈ 1.56 µg/mL)	12.5 µg/mL (≈ 34.5 µM)	12.5 µg/mL (≈ 34.5 µM)	25 µg/mL (≈ 69 µM)	342 µg/mL (≈ 944 µM)	219	8.4%
O=C(OCc1cn(Cc2ccc(C(F)(F)F)cc2)nn1)c1cnccn1	8.59 µM (≈ 3.12 µg/mL)	25 µg/mL (≈ 68.8 µM)	25 µg/mL (≈ 68.8 µM)	25 µg/mL (≈ 68.8 µM)	–	–	–
FC(F)(F)c1ccc(Cn2cc(CSc3nnc(-c4cccnc4)o3)nn2)cc1	> 100 µM	50 µg/mL (≈ 120 µM)	25 µg/mL (≈ 59.8 µM)	50 µg/mL (≈ 120 µM)	–	–	–
Cc1ccc(Cn2cc(CSc3nnc(-c4cccnc4)o3)nn2)cc1	34.3 µM (≈ 12.5 µg/mL)	252 µg/mL (≈ 691 µM)	12.5 µg/mL (≈ 34.3 µM)	225 µg/mL (≈ 617 µM)	–	–	–
Fc1ccc(Cn2cc(CSc3nnc(-c4cnccn4)o3)nn2)cc1	33.8 µM (≈ 12.5 µg/mL)	25 µg/mL (≈ 67.7 µM)	25 µg/mL (≈ 67.7 µM)	50 µg/mL (≈ 135 µM)	–	–	–
O=[N+]([O-])c1ccc(Cn2cc(CSc3nnc(-c4cnccn4)o3)nn2)cc1	15.8 µM (≈ 6.25 µg/mL)	inactive	12.5 µg/mL (≈ 31.5 µM)	25 µg/mL (≈ 63.1 µM)	–	–	–
O=[N+]([O-])c1ccc(Cn2cc(CSc3nnc(-c4cccnc4)o3)nn2)cc1	63.2 µM (≈ 25 µg/mL)	50 µg/mL (≈ 126 µM)	25 µg/mL (≈ 63.2 µM)	25 µg/mL (≈ 63.2 µM)	–	–	–
O=C(OCc1cn(Cc2ccccc2F)nn1)c1cnccn1	19.9 µM (≈ 6.23 µg/mL)	25 µg/mL (≈ 79.8 µM)	25 µg/mL (≈ 79.8 µM)	50 µg/mL (≈ 160 µM)	–	–	–

Compound	MIC [1]	MIC (Escherichia coli)	MIC (Staphylococcus aureus)	MIC (Pseudomonas aeruginosa)	IC50 (Vero)	selectivity ratio [2]	inhibition at 48 h, 62.5 ug/ml [3]
N#Cc1ccc(Cn2cc(CNC(=O)c3cccnc3)nn2)cc1	4.9 µM (≈ 1.56 µg/mL)	6.25 µg/mL (≈ 19.6 µM)	6.25 µg/mL (≈ 19.6 µM)	6.25 µg/mL (≈ 19.6 µM)	399 µg/mL (≈ 1250 µM)	256	17.7%
O=C(NCc1cn(Cc2ccc([N+](=O)[O-])cc2)nn1)c1cccnc1	4.61 µM (≈ 1.56 µg/mL)	12.5 µg/mL (≈ 36.9 µM)	6.25 µg/mL (≈ 18.5 µM)	6.25 µg/mL (≈ 18.5 µM)	465 µg/mL (≈ 1380 µM)	298	7.08%
O=C(O)c1cn(C2CC2)c2cc(N3CCNCC3)c(F)cc2c1=O [CIPROFLOXACIN]	9.41 µM (≈ 3.12 µg/mL)	–	2 µg/mL (≈ 6.04 µM)	4 µg/mL (≈ 12.1 µM)	–	–	–
O=C(OCc1cn(Cc2ccc([N+](=O)[O-])cc2)nn1)c1ccccc1	> 100 µM	inactive	50 µg/mL (≈ 148 µM)	inactive	–	–	–
Fc1ccccc1Cn1cc(CSc2nnc(-c3cccnc3)o2)nn1	> 100 µM	50 µg/mL (≈ 136 µM)	50 µg/mL (≈ 136 µM)	25 µg/mL (≈ 67.9 µM)	–	–	–
N#Cc1ccc(Cn2cc(CNC(=O)c3cnccn3)nn2)cc1	4.88 µM (≈ 1.56 µg/mL)	6.25 µg/mL (≈ 19.6 µM)	6.25 µg/mL (≈ 19.6 µM)	6.25 µg/mL (≈ 19.6 µM)	533 µg/mL (≈ 1670 µM)	342	12.3%
O=C(OCc1cn(Cc2ccc(C(F)(F)F)cc2)nn1)c1cccnc1	34.5 µM (≈ 12.5 µg/mL)	25 µg/mL (≈ 69 µM)	25 µg/mL (≈ 69 µM)	50 µg/mL (≈ 138 µM)	–	–	–
O=C(NCc1cn(Cc2ccc([N+](=O)[O-])cc2)nn1)c1ccccc1	> 100 µM	50 µg/mL (≈ 148 µM)	50 µg/mL (≈ 148 µM)	50 µg/mL (≈ 148 µM)	–	–	–
O=C(OCc1cn(Cc2ccccc2F)nn1)c1ccccc1	80.3 µM (≈ 25 µg/mL)	25 µg/mL (≈ 80.3 µM)	25 µg/mL (≈ 80.3 µM)	50 µg/mL (≈ 161 µM)	–	–	–
O=C(NCc1cn(Cc2ccc(C(F)(F)F)cc2)nn1)c1cccnc1	4.31 µM (≈ 1.56 µg/mL)	6.25 µg/mL (≈ 17.3 µM)	12.5 µg/mL (≈ 34.6 µM)	12.5 µg/mL (≈ 34.6 µM)	336 µg/mL (≈ 931 µM)	216	7.42%
O=C(NCc1cn(Cc2ccc(C(F)(F)F)cc2)nn1)c1ccccc1	> 100 µM	inactive	50 µg/mL (≈ 139 µM)	25 µg/mL (≈ 69.4 µM)	–	–	–
N#Cc1ccc(Cn2cc(COC(=O)c3cccnc3)nn2)cc1	78.3 µM (≈ 25 µg/mL)	50 µg/mL (≈ 157 µM)	25 µg/mL (≈ 78.3 µM)	50 µg/mL (≈ 157 µM)	–	–	–
O=C(OCc1cn(Cc2ccc([N+](=O)[O-])cc2)nn1)c1cccnc1	36.8 µM (≈ 12.5 µg/mL)	25 µg/mL (≈ 73.7 µM)	25 µg/mL (≈ 73.7 µM)	25 µg/mL (≈ 73.7 µM)	–	–	–
O=C(OCc1cn(Cc2ccccc2F)nn1)c1cccnc1	80 µM (≈ 25 µg/mL)	25 µg/mL (≈ 80.1 µM)	50 µg/mL (≈ 160 µM)	50 µg/mL (≈ 160 µM)	–	–	–
O=C(NCc1cn(Cc2ccc([N+](=O)[O-])cc2)nn1)c1cnccn1	4.59 µM (≈ 1.56 µg/mL)	6.25 µg/mL (≈ 18.4 µM)	3.12 µg/mL (≈ 9.19 µM)	6.25 µg/mL (≈ 18.4 µM)	403 µg/mL (≈ 1190 µM)	258	20.5%
O=C(OCc1cn(Cc2ccc(F)cc2)nn1)c1cccnc1	> 100 µM	inactive	50 µg/mL (≈ 160 µM)	50 µg/mL (≈ 160 µM)	–	–	–
O=C(OCc1cn(Cc2ccc(F)cc2)nn1)c1cnccn1	9.95 µM (≈ 3.12 µg/mL)	12.5 µg/mL (≈ 39.9 µM)	12.5 µg/mL (≈ 39.9 µM)	25 µg/mL (≈ 79.8 µM)	–	–	–
N#Cc1ccc(Cn2cc(CSc3nnc(-c4cccnc4)o3)nn2)cc1	66.6 µM (≈ 25 µg/mL)	50 µg/mL (≈ 133 µM)	50 µg/mL (≈ 133 µM)	50 µg/mL (≈ 133 µM)	–	–	–
N#Cc1ccc(Cn2cc(COC(=O)c3ccccc3)nn2)cc1	39.3 µM (≈ 12.5 µg/mL)	25 µg/mL (≈ 78.5 µM)	25 µg/mL (≈ 78.5 µM)	50 µg/mL (≈ 157 µM)	–	–	–
O=C(NCc1cn(Cc2ccc(F)cc2)nn1)c1cnccn1	4.99 µM (≈ 1.56 µg/mL)	12.5 µg/mL (≈ 40 µM)	6.25 µg/mL (≈ 20 µM)	12.5 µg/mL (≈ 40 µM)	496 µg/mL (≈ 1590 µM)	318	5.9%
Fc1ccc(Cn2cc(CSc3nnc(-c4cccnc4)o3)nn2)cc1	> 100 µM	inactive	50 µg/mL (≈ 136 µM)	inactive	–	–	–
O=C(OCc1cn(Cc2ccc(C(F)(F)F)cc2)nn1)c1ccccc1	> 100 µM	inactive	50 µg/mL (≈ 138 µM)	inactive	–	–	–
